The values that follow come from patent US10976318B2, “Method of treating cancer using a caspase-4 inhibitor” (IMMUNEPHARMA S.R.L., priority 2014, dated 2021).

The experiment concerns lung tumor lesion in C57Bl/6 mice treated with NMU. Description: Murine model of lung carcinoma induced by intratracheal NMU; tumor lesion area/total lung area. It counts as in vivo, mouse. The conditions noted are these: C57Bl/6 mice exposed to NMU, caspase-1 inhibitor i.p.; *p<0.05, **p<0.01; FIG. 6C. Here is the method:
Murine Model of Lung Carcinoma.
C57Bl/6 mice (Harlan Laboratories, Italy) and 129Sv mice, and caspase-1 and 11 knockout mice (Charles River Laboratories, Italy) (females of 6-8 weeks) were subjected to intratracheal (i.t.) instillation of a carcinogen, N-nitroso-N-methyl-urea (NMU), having alkylating and mutagenic activities (Damiani et al., 2008). NMU was administered three times every 7 days, according to the following administration schedule and dosage: day 0, 50 μg/mouse; day 8, 10 μg/mouse and day 15, 10 μg/mouse (FIG. 1). In some experiments, an anti-IL-1α antibody (Ab) (2 μg/[…] i.p.; eBioscience, USA), or a caspase-1 inhibitor (Ac-Y-VAD-cmk: 10 ug/mouse i.p., Sigma Aldrich, USA), or an anti-caspase-11 antibody (10 ug/mouse, i.p.; Santa Cruz, USA) were administered to C57Bl/6 mice treated with NMU. The animals were sacrificed at different time points (3-7-30 days from the first NMU administration), according to the scheme shown in FIG. 1. The tumor lesion was expressed as the tumor lesion area/total lung area ratio. […]
The results are expressed as mean±SEM. The differences between the various groups were statistically analyzed using One Way ANOVA analysis and/or Student's t test, as appropriate. […]

*: point of attachment. CH2Cl = ClC*

Take “Ac-Tyr-Val-Ala-Asp-CHO (Ac-YVAD-aldehyde) [y-VAD-CHO, N. sc-3069]”: the “tumor lesion, effect in words” value is recorded as “reduced”. In the case of “Ac-Tyr-Val-Ala-Asp-Chloromethylketone (Ac-YVAD-CH2Cl) [Ac-Y-VAD-cmk, N. SML-0429]” it was “reduced”.
